Laboratory results from US9023789B2, “Amylin analogs and pharmaceutical compositions thereof” (Novo Nordisk A/S, priority 2012, dated 2015).
Read-outs that look alike come from different tables or passages of the source. Numbered stars: 1 amine (or outer) side, 2 acyl side, 3 side chain; on linkers, the order of the positions; unused ones are H or OH. Bridge positions count the residues as written; N and C are the ends. Side chains are listed from the residue outwards. Peptide text beside a SMILES is read from it. * marks the point of attachment. C20 diacid = O=C(O)CCCCCCCCCCCCCCCCCCC(=O)*; γGlu = O=C(O)[C@H](CCC(=O)[*:2])N[*:1]; AEEA = NCCOCCOCC(=O)O

Tests used:
[1] = target: T1, rat amylin receptor (rat calcitonin receptor + rat RAMP 3) (Rattus norvegicus, UniProt P32214+Q9JJ73); experiment: ASSAY (VI) binding to the rat amylin receptor; conditions: for IC50: binding to rat amylin receptor, read-out: rAmylin-R bind IC50
T1 construct: expressed in transfected cells; host or cells: BHK tk'ts 13 (transient, FuGENE 6), membranes
T1 sequence (P32214 25-479 isoform P32214-2 limits assumed): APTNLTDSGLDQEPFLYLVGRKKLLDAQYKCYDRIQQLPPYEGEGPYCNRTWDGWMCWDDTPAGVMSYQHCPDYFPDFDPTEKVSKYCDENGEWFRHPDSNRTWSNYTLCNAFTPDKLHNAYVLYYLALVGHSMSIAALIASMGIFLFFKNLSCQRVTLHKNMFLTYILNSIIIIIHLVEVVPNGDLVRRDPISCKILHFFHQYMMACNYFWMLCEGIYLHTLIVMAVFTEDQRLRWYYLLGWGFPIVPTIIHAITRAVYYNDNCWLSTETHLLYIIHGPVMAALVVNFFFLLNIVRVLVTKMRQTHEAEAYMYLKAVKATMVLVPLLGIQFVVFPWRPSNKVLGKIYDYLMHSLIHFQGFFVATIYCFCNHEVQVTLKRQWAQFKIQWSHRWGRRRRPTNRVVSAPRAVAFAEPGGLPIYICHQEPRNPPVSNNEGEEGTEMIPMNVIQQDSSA
T1 sequence (Q9JJ73 23-147 partner): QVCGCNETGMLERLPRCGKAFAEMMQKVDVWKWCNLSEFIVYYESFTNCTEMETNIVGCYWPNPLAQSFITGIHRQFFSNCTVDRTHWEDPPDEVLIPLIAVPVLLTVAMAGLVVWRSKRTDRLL
Procedure, shortened: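 The cell-membrane assay assessed binding at the rat amylin receptor. BHK tk′ts 13 cells were transfected transiently with rat calcitonin receptor, with FuGENE® 6 (Roche) as the transfection reagent, used per the manufacturer's recommendations. Approximately 48 hours after transfection the cells were harvested, and membranes were prepared for measuring binding.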

[2] = ASSAY (IV) determination of solubility; format: physicochemical
Procedure, shortened: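 Solubility measured by UPLC of supernatant after centrifugation, following 18 h at room temperature. Peptide ([…] in water) was diluted 1:1 into 100 mM glycylglycine (pH 3.0, 4.0, 5.0) or bistrispropane (pH 6.0-8.0).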

rat calcitonin receptor = target: T2, rat calcitonin receptor (Rattus norvegicus, UniProt P32214); experiment: ASSAY (VIII) binding to the rat calcitonin receptor; conditions: Table 7, read-out: rCTR bind IC50
T2 construct: expressed in transfected cells; host or cells: BHK tk'ts 13 (transient, FuGENE 6), membranes
T2 sequence (P32214 25-479 isoform P32214-2 limits assumed): T1 sequence (P32214 25-479 isoform P32214-2 limits assumed)
Procedure, shortened: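 BHK tk′ts 13 cells, transient rat calcitonin receptor transfection; DMEM + 10% FBS; harvest ~48 h post-transfection; membrane prep.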

[3] = target: T3, human amylin 3(a) receptor (human calcitonin receptor + RAMP-3) in BHK570 cells (Homo sapiens, UniProt O60896+P30988); experiment: ASSAY (II)a functional assay, human amylin receptor (CRE luciferase); format: cell-based; conditions: for EC50: human amylin receptor functional potency, assay (II), read-out: hAmylin-R funct. EC50
T3 construct: expressed in transfected cells
T3 sequence (O60896 24-148): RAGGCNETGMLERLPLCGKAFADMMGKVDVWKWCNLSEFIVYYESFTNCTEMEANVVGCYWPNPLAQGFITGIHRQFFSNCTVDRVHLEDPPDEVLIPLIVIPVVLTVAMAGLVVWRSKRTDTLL
T3 sequence (P30988 25-474): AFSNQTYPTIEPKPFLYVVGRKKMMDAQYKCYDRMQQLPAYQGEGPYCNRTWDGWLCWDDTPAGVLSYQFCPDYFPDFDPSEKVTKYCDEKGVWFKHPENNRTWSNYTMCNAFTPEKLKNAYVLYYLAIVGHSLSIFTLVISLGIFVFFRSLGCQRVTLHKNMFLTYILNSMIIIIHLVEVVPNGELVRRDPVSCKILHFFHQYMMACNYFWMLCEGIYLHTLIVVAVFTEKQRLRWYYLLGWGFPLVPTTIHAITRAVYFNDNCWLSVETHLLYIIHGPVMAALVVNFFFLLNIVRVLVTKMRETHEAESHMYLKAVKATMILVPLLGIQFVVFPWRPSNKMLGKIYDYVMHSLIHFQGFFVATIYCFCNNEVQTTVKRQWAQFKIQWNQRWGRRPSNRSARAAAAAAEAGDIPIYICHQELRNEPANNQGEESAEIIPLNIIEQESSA
Procedure, shortened: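 Functional agonism was measured by CRE-luciferase reporter luminescence in BHK cells bearing calcitonin receptor, or calcitonin receptor plus RAMP-3 as the amylin 3(a) receptor. Stimulation lasted 3 hours at 37° C.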

[4] = Table 7, rat binding selectivity, rCTR IC50 / rAmylin-R IC50
[5] = Table 7a (preferred compounds), rat binding selectivity, rCTR IC50 / rAmylin-R IC50
[6] = ratio of rCTR bind IC50 to rAmylin-R bind IC50
[7] = bistrispropane buffer, pH 6.5, read-out: Solubility pH 6.5 Concentration
[8] = bistrispropane buffer, pH 7.5, read-out: Solubility pH 7.5 Concentration
[9] = bistrispropane buffer, pH 6.0, read-out: Solubility pH 6.0 Concentration
[10] = bistrispropane buffer, pH 7.0, read-out: Solubility pH 7.0 Concentration
[11] = bistrispropane buffer, pH 8.0, read-out: Solubility pH 8.0 Concentration
[12] = glycylglycine buffer, pH 3.0, read-out: Solubility pH 3.0 Concentration
[13] = glycylglycine buffer, pH 4.0, read-out: Solubility pH 4.0 Concentration
[14] = glycylglycine buffer, pH 5.0, read-out: Solubility pH 5.0 Concentration
[15] = hCTR funct. EC50 divided by hAmylin-R funct. EC50
[16] = human functional selectivity: hCTR funct. EC50 / hAmylin-R funct. EC50

Row | IC50 ([1]; Table 7) | Ratio rCT/rAmylin binding [1, 4] | Ratio rCT/rAmylin binding [1, 5] | Ratio rCT/rAmylin binding [1, 6] | solubility at 18 h [2, 7] | solubility at 18 h [2, 8] | solubility at 18 h [2, 9] | solubility at 18 h [2, 10] | solubility at 18 h [2, 11] | solubility at 18 h [2, 12] | solubility at 18 h [2, 13] | solubility at 18 h [2, 14] | IC50 (rat calcitonin receptor) | Ratio hCT/hAmylin funct. [3, 15] | Ratio hCT/hAmylin funct. ([3]; hCTR funct. EC50 over hAmylin-R funct. EC50) | EC50 [3] | Ratio hCT/hAmylin funct. [3, 16] | Structure (SMILES)
1 | 450 pM | 104.0 | 104.0 | 104.0 | ≥ 200 µM | ≥ 200 µM | ≥ 200 µM | ≥ 200 µM | ≥ 200 µM | ≥ 200 µM | ≥ 200 µM | ≥ 200 µM | 46800 pM | 13.3 | 13.3 | 94 pM | 13.3 | CC[C@H](C)[C@H](NC(=O)[C@H](C)NC(=O)CNC(=O)[C@H](Cc1ccccc1)NC(=O)[C@H](CC(N)=O)NC(=O)[C@@H]1CCCN1C(=O)[C@H](CO)NC(=O)[C@H](CO)NC(=O)[C@H](Cc1c[nH]cn1)NC(=O)[C@H](CCCNC(=N)N)NC(=O)[C@H](CC(C)C)NC(=O)[C@H](Cc1ccccc1)NC(=O)[C@H](Cc1c[nH]cn1)NC(=O)[C@H](C)NC(=O)[C@H](CC(C)C)NC(=O)[C@H](CCCNC(=N)N)NC(=O)[C@H](CCC(N)=O)NC(=O)[C@@H](NC(=O)[C@H](C)NC(=O)[C@@H]1CSSC[C@H](NC(=O)[C@@H](N)CCCCNC(=O)COCCOCCNC(=O)CC[C@H](NC(=O)CCCCCCCCCCCCCCCCCCC(=O)O)C(=O)O)C(=O)N[C@@H](CC(N)=O)C(=O)N[C@@H]([C@@H](C)O)C(=O)N[C@@H](C)C(=O)N[C@@H]([C@@H](C)O)C(=O)N1)[C@@H](C)O)C(=O)N1CCC[C@H]1C(=O)N[C@@H](CO)C(=O)N[C@@H](CO)C(=O)N[C@H](C(=O)N[C@@H](CC(N)=O)C(=O)N[C@H](C(=O)NCC(=O)N[C@@H](CO)C(=O)N[C@@H](CC(N)=O)C(=O)N[C@H](C(=O)N[C@@H](Cc1ccc(O)cc1)C(N)=O)[C@@H](C)O)C(C)C)[C@@H](C)O [Example 69] (H-K([AEEA-γGlu-C20 diacid])CNTATCATQRLAHFLRHSSPNFGAIPSSTNVGSNTY-NH2; disulfide 2-7; N-terminus assumed)
2 | 110 pM | 69.1 | 69.1 | 69.1 | ≥ 200 µM | ≥ 200 µM | ≥ 200 µM | ≥ 200 µM | ≥ 200 µM | ≥ 200 µM | ≥ 200 µM | ≥ 200 µM | 7600 pM | 6.5 |  | 141 pM | 6.5 | CC[C@H](C)[C@H](NC(=O)[C@H](C)NC(=O)CNC(=O)[C@H](Cc1ccccc1)NC(=O)[C@H](CC(N)=O)NC(=O)[C@@H]1CCCN1C(=O)[C@H](CO)NC(=O)[C@H](CO)NC(=O)[C@H](Cc1c[nH]cn1)NC(=O)[C@H](CCCNC(=N)N)NC(=O)[C@H](CC(C)C)NC(=O)[C@H](Cc1ccccc1)NC(=O)[C@H](CC(N)=O)NC(=O)[C@H](C)NC(=O)[C@H](CC(C)C)NC(=O)[C@H](CCCNC(=N)N)NC(=O)[C@H](CCC(N)=O)NC(=O)[C@@H](NC(=O)[C@H](C)NC(=O)[C@@H]1CSSC[C@H](NC(=O)[C@@H](N)CCCCNC(=O)COCCOCCNC(=O)CCCCCCCCCCCCCCCCCCC(=O)O)C(=O)N[C@@H](CC(N)=O)C(=O)N[C@@H]([C@@H](C)O)C(=O)N[C@@H](C)C(=O)N[C@@H]([C@@H](C)O)C(=O)N1)[C@@H](C)O)C(=O)N1CCC[C@H]1C(=O)N[C@@H](CO)C(=O)N[C@@H](CO)C(=O)N[C@H](C(=O)N[C@@H](CC(N)=O)C(=O)N[C@H](C(=O)NCC(=O)N[C@@H](CO)C(=O)N[C@@H](CC(N)=O)C(=O)N[C@H](C(=O)N[C@@H](Cc1ccc(O)cc1)C(N)=O)[C@@H](C)O)C(C)C)[C@@H](C)O [Example 43]
